# Data as given in PubChem BioAssay (NCI).
#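 A five-concentration, 48-hour dose response in 96-well plates underlies each endpoint, interpolated linearly between surrounding concentrations. Definition used: TGI = concentration required for complete inhibition of growth.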
# Columns and labels:
# Test in all cases: NCI-60 cell line screen, 48 h
# [1] = tested on: SR leukemia
# [2] = tested on: HOP-62 NSCLC
# [3] = tested on: BT-549 breast
# [4] = tested on: SNB-75 CNS
# [5] = tested on: SK-MEL-5 melanoma
# [6] = tested on: HCT-116 colon
# [7] = tested on: NCI/ADR-RES ovarian
# [8] = tested on: UO-31 renal
# [9] = tested on: RPMI-8226 leukemia
# [10] = tested on: 786-0 renal
# [11] = tested on: UACC-257 melanoma
# [12] = tested on: OVCAR-8 ovarian
# [13] = tested on: MDA-MB-435
# [14] = tested on: U251 CNS
# [15] = tested on: NCI-H522 lung
# [16] = tested on: MALME-3M melanoma
# [17] = tested on: LOX IMVI melanoma
# [18] = tested on: EKVX NSCLC
# [19] = tested on: SF-295 CNS
# [20] = tested on: A549 NSCLC
# [21] = tested on: DU-145 prostate
# [22] = tested on: SW-620 colon
# [23] = tested on: NCI-H226 lung
# [24] = tested on: HOP-92 NSCLC
# [25] = tested on: UACC-62 melanoma
# [26] = tested on: T-47D breast
# [27] = tested on: OVCAR-5 ovarian
# [28] = tested on: MDA-N
# [29] = tested on: A498 renal
# [30] = tested on: HCC-2998 colon
# [31] = tested on: HT29 colon
# [32] = tested on: HL-60(TB) leukemia
# [33] = tested on: CCRF-CEM leukemia
# [34] = tested on: COLO 205 colon
# [35] = tested on: HCT-15 colon
# [36] = tested on: K-562 leukemia
# [37] = tested on: RXF 393 renal
# [38] = tested on: KM12 colon
# [39] = tested on: SF-539 CNS
# [40] = tested on: NCI-H23 lung
# [41] = tested on: HS 578T breast
# [42] = tested on: MDA-MB-231 breast
# [43] = tested on: MOLT-4 leukemia
# [44] = tested on: CAKI-1 renal
# [45] = tested on: ACHN renal
# [46] = tested on: SN12C renal
# [47] = tested on: IGROV1 ovarian
# [48] = tested on: TK-10 renal
# [49] = tested on: PC-3 prostate
# [50] = tested on: OVCAR-3 ovarian
# [51] = tested on: NCI-H460 lung
# [52] = tested on: OVCAR-4 ovarian
# [53] = tested on: SK-MEL-28 melanoma
# [54] = tested on: SK-MEL-2 melanoma
# [55] = tested on: MCF7 breast
# [56] = tested on: SNB-19 CNS
# [57] = tested on: SF-268 CNS
# [58] = tested on: SK-OV-3 ovarian
# [59] = tested on: M14 melanoma
structure (smiles),measurement,setting,value
CS(=O)(=O)Nc1ccc2c(c1)N(S(C)(=O)=O)CC2COS(C)(=O)=O (configuration not stated),TGI,[1],93.2 µM
same,TGI,[2],70.9 µM
same,TGI,[3],> 100 µM
same,TGI,[4],> 100 µM
same,TGI,[5],40.7 µM
same,TGI,[6],> 100 µM
same,TGI,[7],> 100 µM
same,TGI,[8],> 100 µM
same,TGI,[9],81.4 µM
same,TGI,[10],> 100 µM
same,TGI,[11],> 100 µM
same,TGI,[12],> 100 µM
same,TGI,[13],> 100 µM
same,TGI,[14],59.2 µM
same,TGI,[15],43.1 µM
same,TGI,[16],> 100 µM
same,TGI,[17],> 100 µM
same,TGI,[18],> 100 µM
same,TGI,[19],> 100 µM
same,TGI,[20],> 100 µM
same,TGI,[21],> 100 µM
same,TGI,[22],> 100 µM
same,TGI,[23],> 100 µM
same,TGI,[24],> 100 µM
same,TGI,[25],> 100 µM
same,TGI,[26],> 100 µM
same,TGI,[27],> 100 µM
same,TGI,[28],> 100 µM
same,TGI,[29],> 100 µM
same,TGI,[30],> 100 µM
same,TGI,[31],> 100 µM
same,TGI,[32],88.3 µM
same,TGI,[33],> 100 µM
same,TGI,[34],> 100 µM
same,TGI,[35],> 100 µM
same,TGI,[36],> 100 µM
same,TGI,[37],41.5 µM
same,TGI,[38],> 100 µM
same,TGI,[39],> 100 µM
same,TGI,[40],> 100 µM
same,TGI,[41],> 100 µM
same,TGI,[42],> 100 µM
same,TGI,[43],> 100 µM
same,TGI,[44],> 100 µM
same,TGI,[45],> 100 µM
same,TGI,[46],> 100 µM
same,TGI,[47],> 100 µM
same,TGI,[48],> 100 µM
same,TGI,[49],> 100 µM
same,TGI,[50],> 100 µM
same,TGI,[51],> 100 µM
same,TGI,[52],> 100 µM
same,TGI,[53],> 100 µM
same,TGI,[54],71.7 µM
CCCCS/C(=C(/C#N)C(N)=O)c1cc2c([nH]1)CCCC2,TGI,[2],72 µM
same,TGI,[3],27.8 µM
same,TGI,[4],29.1 µM
same,TGI,[5],26.7 µM
same,TGI,[6],23 µM
same,TGI,[7],28.6 µM
same,TGI,[8],25.8 µM
same,TGI,[9],29.6 µM
same,TGI,[10],24 µM
same,TGI,[11],32.4 µM
same,TGI,[12],36.5 µM
same,TGI,[55],50.4 µM
same,TGI,[13],11.9 µM
same,TGI,[14],31.2 µM
same,TGI,[16],23.8 µM
same,TGI,[17],21.1 µM
same,TGI,[18],24.4 µM
same,TGI,[19],28.5 µM
same,TGI,[20],> 100 µM
same,TGI,[56],34.4 µM
same,TGI,[57],26.7 µM
same,TGI,[21],25.4 µM
same,TGI,[22],24.6 µM
same,TGI,[23],34.7 µM
same,TGI,[24],38.7 µM
same,TGI,[25],22.8 µM
same,TGI,[27],> 100 µM
same,TGI,[28],18.3 µM
same,TGI,[29],31.4 µM
same,TGI,[30],26.7 µM
same,TGI,[31],15 µM
same,TGI,[32],11.6 µM
same,TGI,[33],48.9 µM
same,TGI,[34],27.9 µM
same,TGI,[35],21.4 µM
same,TGI,[36],> 100 µM
same,TGI,[37],38.6 µM
same,TGI,[38],23.5 µM
same,TGI,[58],93.8 µM
same,TGI,[39],30 µM
same,TGI,[40],36.7 µM
same,TGI,[42],30.3 µM
same,TGI,[43],38.6 µM
same,TGI,[44],29.5 µM
same,TGI,[45],39.7 µM
same,TGI,[46],43.1 µM
same,TGI,[48],29 µM
same,TGI,[49],46.5 µM
same,TGI,[50],36.5 µM
same,TGI,[51],48.3 µM
same,TGI,[52],36.1 µM
same,TGI,[53],28.2 µM
same,TGI,[54],34.7 µM
CC1(C)OCC(C2OC(OC(=O)c3ccc(C(F)(F)F)cc3)C3OC(C)(C)OC23)O1 (configuration not stated),TGI,[1],> 77.5 µM
same,TGI,[2],> 77.5 µM
same,TGI,[3],> 77.5 µM
same,TGI,[4],> 77.5 µM
same,TGI,[5],> 77.5 µM
same,TGI,[6],> 77.5 µM
same,TGI,[7],> 77.5 µM
same,TGI,[8],> 77.5 µM
same,TGI,[9],> 77.5 µM
same,TGI,[10],> 77.5 µM
same,TGI,[11],> 77.5 µM
same,TGI,[12],> 77.5 µM
same,TGI,[55],> 77.5 µM
same,TGI,[13],> 77.5 µM
same,TGI,[14],> 77.5 µM
same,TGI,[15],> 77.5 µM
same,TGI,[16],> 77.5 µM
same,TGI,[17],> 77.5 µM
same,TGI,[18],> 77.5 µM
same,TGI,[19],> 77.5 µM
same,TGI,[20],> 77.5 µM
same,TGI,[56],> 77.5 µM
same,TGI,[57],> 77.5 µM
same,TGI,[21],> 77.5 µM
same,TGI,[22],> 77.5 µM
same,TGI,[23],> 77.5 µM
same,TGI,[59],> 77.5 µM
same,TGI,[25],> 77.5 µM
same,TGI,[27],> 77.5 µM
same,TGI,[28],> 77.5 µM
same,TGI,[29],> 77.5 µM
same,TGI,[30],> 77.5 µM
same,TGI,[31],> 77.5 µM
same,TGI,[33],> 77.5 µM
same,TGI,[34],> 77.5 µM
same,TGI,[35],> 77.5 µM
same,TGI,[36],> 77.5 µM
same,TGI,[37],> 77.5 µM
same,TGI,[38],> 77.5 µM
same,TGI,[58],> 77.5 µM
same,TGI,[39],> 77.5 µM
same,TGI,[40],> 77.5 µM
same,TGI,[42],> 77.5 µM
same,TGI,[43],> 77.5 µM
same,TGI,[44],> 77.5 µM
same,TGI,[45],> 77.5 µM
same,TGI,[46],> 77.5 µM
same,TGI,[47],> 77.5 µM
same,TGI,[48],> 77.5 µM
same,TGI,[49],> 77.5 µM
same,TGI,[50],> 77.5 µM
same,TGI,[51],> 77.5 µM
same,TGI,[52],> 77.5 µM
same,TGI,[53],> 77.5 µM
same,TGI,[54],> 77.5 µM
